Experiment in all cases: growth of human tumour cells (NCI), 48 h
In assay [1] the test system is A549.
Assay [2] has as its system CCRF-CEM.
Assay [3] deals with COLO 205.
Assay [4] concerns HCT-15.
The subject of assay [5] is HL-60.
For assay [6], the system named is HOP-62.
For assay [7], the system named is HOP-92.
Assay [8] deals with K562.
Assay [9] relates to KM12.
In assay [10] the test system is M14.
For assay [11], the system named is NCI-H522.
Assay [12] concerns OVCAR-5.
For assay [13], the system named is RPMI-8226.
The test system of assay [14] is SF-268.
Assay [15] deals with SF-295.
The subject of assay [16] is SN12C.
Assay [17] concerns SW-620.
In assay [18] the test system is U-251.
Assay [19] concerns SF-539.
The test system of assay [20] is RXF 393.

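Grown in 96-well plates, cells were treated for 48 hours with each compound at five concentrations. Insufficient inhibition: endpoint recorded as highest concentration tested. Here, GI50 denotes the concentration required for 50% inhibition of growth.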 Activity calls are given as the source filed them. Cut-off read from the data, not from the text of the source: active = GI50 up to about 1.1 µM and inactive = higher.

The text below walks through data of ChEMBL document CHEMBL1201862, “PubChem BioAssay data set” (2004).

Regarding `CN1C(C)(C)CC(=O)C(Br)C1(C)C` (centres undefined), the GI50 was > 100 µM (inactive) in assay [1]; > 100 µM (inactive) in [2]; > 100 µM (inactive) in [3]; above 100 µM in assay [4]; > 100 µM (inactive) in assay [5]; > 100 µM (inactive) in [6]. For the same compound, the GI50 in assay [7], in [8], in [9], in assay [10], in [11] and in assay [12] was > 100 µM (inactive) throughout. Besides, the GI50 in assay [13], in [14], in assay [15], in assay [16], in assay [17] and in assay [18] was > 100 µM (inactive) throughout.
In the case of `O=C(O)COc1ccc(C(=O)/C(SS/C(C(=O)c2ccc(OCC(=O)O)c(Cl)c2Cl)=C2\C=C(c3ccc(Br)cc3)SS2)=C2/C=C(c3ccc(Br)cc3)SS2)c(Cl)c1Cl`, the GI50 is 33.9 µM (inactive) in [1]; 3.21 µM (inactive) in assay [2]; 3.11 µM (inactive) in [3]; 4.92 µM in assay [4]; 1.55 µM (inactive) in assay [5]; 12.9 µM (inactive) in [6]. Further, the GI50 is 3.5 µM (inactive) in assay [7]; 2.92 µM (inactive) in [8]; 8.13 µM (inactive) in assay [9]; 11.1 µM (inactive) in [10]; 0.798 µM (active) in [11]; 24.8 µM (inactive) in assay [12]. Also, the GI50 is 4.73 µM (inactive) in assay [13]; 2.82 µM (inactive) in assay [14]; 5.58 µM (inactive) in assay [15]; 4.3 µM (inactive) in assay [19]; 6.32 µM (inactive) in [16]; 6.73 µM (inactive) in assay [17]. Further, the GI50 in assay [18] is 3.47 µM (inactive).
Regarding `C=C1C(=O)O[C@H]2C/C(C=O)=C\[C@H]3O[C@H]3/C(COC(=O)C(C)C)=C/CC12` (some centres undefined), the GI50 in assay [1] is 16.9 µM (inactive); in assay [2], 1.83 µM (inactive); in assay [3], 1.93 µM (inactive); in [4], 3.3 µM; in assay [5] it was 2.11 µM (inactive); in assay [6], 13.6 µM (inactive). Besides, the GI50 in [8] is 2.9 µM (inactive); in assay [9], 5.46 µM (inactive); in [11], 3.39 µM (inactive); in assay [12] it was 2.01 µM (inactive); in [13], 2.52 µM (inactive); in assay [20] it was 3.49 µM (inactive). Further, the GI50 is 25.6 µM (inactive) in [15]; 21.5 µM (inactive) in [19]; 2.54 µM (inactive) in assay [16]; 2.52 µM (inactive) in assay [17]; 7.26 µM (inactive) in assay [18].
Consider `CC(C)(O)[C@H](CCO)O[Si](c1ccccc1)(c1ccccc1)C(C)(C)C`, for which the GI50 in assay [1] was 7.35 µM (inactive); in [2], 10.6 µM (inactive); in assay [3], 14.4 µM (inactive); in assay [4], 8.22 µM; in [5] it was 4.99 µM (inactive); in [7] it was 10.8 µM (inactive). For the same compound, the GI50 in [8] is 7.74 µM (inactive); in assay [9], 11.6 µM (inactive); in [10] it was 12.2 µM (inactive); in [11], 6.67 µM (inactive); in [12] it was 14.9 µM (inactive); in [13], 10.4 µM (inactive). Also, the GI50 is 10.5 µM (inactive) in assay [14]; 6.35 µM (inactive) in assay [15]; 14.3 µM (inactive) in assay [19]; 4.11 µM (inactive) in [16]; 12.8 µM (inactive) in assay [17]; 12.4 µM (inactive) in assay [18].
For `COc1ccc2[nH]c3c(C)c4cc[n+](COC(=O)c5ccccc5)cc4c(C)c3c2c1`, the GI50 is 0.269 µM (active) in assay [1]; 0.0698 µM (active) in assay [2]; 0.628 µM (active) in assay [5]; 2.66 µM (inactive) in assay [6]; 0.375 µM (active) in [7]; 0.221 µM (active) in assay [8]. Also, the GI50 in assay [9] was 0.61 µM (active); in assay [10] it was 0.641 µM (active); in assay [11] it was 0.391 µM (active); in assay [12], 0.879 µM (active); in assay [13], 0.144 µM (active); in assay [14], 0.286 µM (active). Also, the GI50 in [15] was 0.184 µM (active); in assay [19] it was 0.305 µM (active); in [16], 0.197 µM (active); in [17] it was 0.0668 µM (active); in assay [18] it was 0.392 µM (active).
In the case of `O=c1c2ccccc2nc(-c2ccccc2Cl)n1NCC1(O)OCC(O)C(O)C1O` (centres undefined), the GI50 is > 100 µM (inactive) in [1]; > 100 µM (inactive) in [2]; > 100 µM (inactive) in assay [3]; above 100 µM in [4]; > 100 µM (inactive) in [5]; > 100 µM (inactive) in assay [8]. Also, the GI50 in [9], in assay [10], in [11], in assay [12], in assay [13] and in assay [20] was > 100 µM (inactive) in each case. The GI50 in assay [14], in assay [15], in [19], in assay [16], in assay [17] and in [18] was > 100 µM (inactive) each time.
As to `CC(=O)O[C@H]1CC[C@H]2[C@@H]3CCC4=C/C(=N/OCCN(C)C)CC[C@]4(C)[C@H]3CC[C@]12C`, the GI50 in assay [1] is 12 µM (inactive); in [2], 2.52 µM (inactive); in [3], 2.27 µM (inactive); in [4] it was 2.22 µM; in [5], 1.88 µM (inactive); in [6], 13.4 µM (inactive). The GI50 in assay [8] was 2.11 µM (inactive); in [9], 5.61 µM (inactive); in [10], 3.18 µM (inactive); in [11], 6.87 µM (inactive); in assay [12] it was 16.9 µM (inactive); in assay [13], 1.2 µM (inactive). The GI50 is 12 µM (inactive) in assay [20]; 13.1 µM (inactive) in assay [14]; 5.41 µM (inactive) in [15]; 2.52 µM (inactive) in assay [19]; 16.9 µM (inactive) in assay [16]; 9.51 µM (inactive) in assay [17]. The GI50 in assay [18] was 13.3 µM (inactive).
Consider `CC(C)CC(C(N)=O)C(=O)NC(Cc1ccccc1)NC(=O)CNC(=O)C(C)NC(=O)C(N)Cc1ccc(O)cc1` (centres undefined), for which the GI50 in [1] is > 100 µM (inactive); in assay [2], > 100 µM (inactive); in assay [3], > 100 µM (inactive); in assay [4], above 100 µM; in assay [5], > 100 µM (inactive); in assay [6] it was > 100 µM (inactive). Further, the GI50 in assay [8], in assay [9], in assay [10], in assay [11], in assay [12] and in assay [13] was > 100 µM (inactive) throughout. For the same compound, the GI50 in assay [20], in assay [14], in [15], in assay [19], in [16] and in assay [17] was > 100 µM (inactive) throughout. Also, the GI50 in assay [18] is > 100 µM (inactive).
Turning to `COc1ccc(Nc2nc(C#N)c(N)s2)cc1`, the GI50 in assay [1] was 27.2 µM (inactive); in assay [3], 35.9 µM (inactive); in [4], 15.8 µM; in assay [5], 24.5 µM (inactive); in [6], 46.8 µM (inactive); in [7], > 100 µM (inactive). Further, the GI50 in [8] was 24.5 µM (inactive); in assay [9], 29.9 µM (inactive); in assay [10], 81.5 µM (inactive); in [11] it was 22.8 µM (inactive); in assay [12] it was > 100 µM (inactive); in assay [13], 18.8 µM (inactive). The GI50 in assay [14] is 19.9 µM (inactive); in assay [15] it was 29.2 µM (inactive); in [19], 36.2 µM (inactive); in assay [16] it was 30.7 µM (inactive); in assay [17], 46.1 µM (inactive); in assay [18] it was 34.2 µM (inactive).
For `Cc1cc(N(CCC#N)CCC#N)ccc1C(/N=N/c1ccc(Cl)cc1)=N\NC(=O)c1ccccc1`, the GI50 is 42.7 µM (inactive) in assay [1]; 31.5 µM (inactive) in assay [2]; 27.6 µM (inactive) in [3]; 16 µM in assay [4]; 25.5 µM (inactive) in assay [5]; 59.6 µM (inactive) in assay [6]. For the same compound, the GI50 in assay [8] is 14.9 µM (inactive); in assay [9], 20.2 µM (inactive); in assay [10] it was 80.5 µM (inactive); in [11], 18.4 µM (inactive); in [12], > 100 µM (inactive); in assay [13], 54.2 µM (inactive). In addition, the GI50 in [20] is 49.2 µM (inactive); in assay [14], 41.9 µM (inactive); in [15], 9.23 µM (inactive); in assay [19] it was 7.62 µM (inactive); in [16] it was 44.2 µM (inactive); in assay [18], 40.7 µM (inactive).
Turning to `CCCCC[C@H]1CCCCCCCCCC(=O)OC2C(O[C@@H]3OC(C)[C@H](OC(=O)[C@@H](C)CC)C(O[C@@H]4OC(C)[C@H](O)C(O)[C@@H]4O)[C@@H]3OC(=O)[C@H](C)CC)[C@H](OC3C(O)[C@@H](O)C(C)O[C@H]3O1)OC(CO)[C@H]2O` (some centres undefined), the GI50 is 16.8 µM (inactive) in [1]; 18.6 µM (inactive) in assay [2]; 11.9 µM (inactive) in assay [3]; 16.7 µM in [4]; 19 µM (inactive) in assay [5]; 18.2 µM (inactive) in [6]. Moreover, the GI50 was 22.3 µM (inactive) in assay [7]; 18.8 µM (inactive) in [8]; 20 µM (inactive) in [9]; 18.2 µM (inactive) in assay [10]; 17.7 µM (inactive) in assay [11]; 16.7 µM (inactive) in assay [12]. The GI50 in [13] was 16.8 µM (inactive); in assay [14], 16.3 µM (inactive); in assay [15], 18 µM (inactive); in [16], 17.5 µM (inactive); in assay [17] it was 16.5 µM (inactive); in assay [18] it was 17.9 µM (inactive).
